Laboratory results: US9527830B2 (Merck Sharp & Dohme Corp., priority 2011, dated 2016)

Experiments:
hROMK (hKir1.1) = biological target: T1, hROMK (hKir1.1) (Homo sapiens, UniProt P48048); assay: Thallium Flux Assay (FluxOR, FLIPR-Tetra); assay type: cell-based; conditions: HEK293 cells stably expressing hROMK; potency ranges
T1 construct: expressed in transfected cells
T1 sequence (P48048 1-391): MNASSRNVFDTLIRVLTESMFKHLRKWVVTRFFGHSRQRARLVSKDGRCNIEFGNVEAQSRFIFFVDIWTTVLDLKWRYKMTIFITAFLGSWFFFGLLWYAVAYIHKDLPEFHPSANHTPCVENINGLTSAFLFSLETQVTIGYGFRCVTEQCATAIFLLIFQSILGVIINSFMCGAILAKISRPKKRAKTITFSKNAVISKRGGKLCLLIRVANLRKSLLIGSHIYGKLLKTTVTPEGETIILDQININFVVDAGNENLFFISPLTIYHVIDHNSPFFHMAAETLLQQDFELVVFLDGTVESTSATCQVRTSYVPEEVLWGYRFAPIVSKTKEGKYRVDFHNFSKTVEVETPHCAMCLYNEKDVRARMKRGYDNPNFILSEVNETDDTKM
Method: Several assays may be used to measure functional inhibition of the ROMK channel by compounds of the instant invention. One primary assay that can be used is a functional ^86Rb^+ efflux assay that measures the ability of ROMK to permeate ^86Rb^+, in the absence or presence of test compound. Under control conditions, cells loaded with ^86Rb^+ and incubated in Rb^+-free medium display a time-dependent efflux of the isotope, the rate of which depends on number of functional channels. When cells are incubated in the presence of a channel inhibitor, efflux of ^86Rb^+ is prevented in a concentration-dependent manner, and IC50 values of inhibition by compounds can be accurately determined. This assay has been established with cell lines expressing either human, rat or dog ROMK channels, and can operate in 96- or 384-well format. Importantly, the human, rat, and dog ^86Rb^+ efflux assays can be carried out in the presence of up to 100% serum allowing, therefore, an accurate estimation of the effect of protein binding on the inhibitory activity of compounds of interest. Another ROMK functional assay makes use of the ability of thallium to permeate through open ROMK channels and increase the fluorescence of a dye previously loaded into the cells. Under control conditions, cells loaded with dye and exposed to thallium-containing medium display a time-dependent increase in fluorescence, the rate of which depends on number of functional channels. When cells are incubated in the presence of a channel inhibitor, the increase in fluorescence is attenuated in a concentration-dependent manner, and IC50 values of inhibition by compounds can be accurately determined. This assay has been established with cell lines expressing either human, or rat ROMK channels, and operates in 384-well format. Another assay for evaluation of the compounds of the instant invention and for evaluation of mechanism of action of compounds of Formula I relies on the measurement of the electrical current that is generated as potassium permeates through the channel. For these electrophysiological experiments, three different platforms, IonWorks, QPatch, or manual patch clamp, are used, depending on the experimental protocol under consideration. IonWorks operates in a 384-well format and allows accurate determination of IC50 values for inhibitors.
HEK293 cells stably expressing hROMK (hKir1.1) were grown at 37° C. in a 10% CO2 humidified incubator in complete growth media: Dulbecco's Modified Eagle Medium supplemented with non-essential amino acids, Penicillin/Streptomycin/Glutamine, G418 and FBS. At >80% confluency, media was aspirated from the flask and rinsed with 10 ml Calcium/Magnesium-free PBS. 5 ml of 1× trypsin (prepared in Ca/Mg Free PBS) was added to T-225 flask and flask returned to 37° C./CO2 incubator for 2-3 minutes. To dislodge the cell, the side of the flask was gently banged by hand. Cells were completely triturated and then transferred to 25 ml complete media, and centrifuged at 1,500 rpm for 6 min followed by resuspension in complete growth media and cell concentration determined. For typical re-seeding, 4E6 cells/T-225 flask attained >80% confluency in 4 days. Under ideal growth conditions and appropriate tissue culture practices, this cell line was stable for 40-45 passages.
FluxOR™ Kit Components (Invitrogen F10017)
• FluxOR™ Reagent (Component A) • FluxOR™ Assay Buffer (Component B)—10× Concentrate • PowerLoad™ Concentrate (Component C)—100× Concentrate • Probenecid (Component D)—Lyophilized sample was kept at −20° C. Water soluble, 100× after solubilization in 1 ml water. Store at 4° C. • FluxOR™ Chloride-free Buffer (Component E)—5× Concentrate • Potassium sulfate (K2SO4) Concentrate (Component F)—125 mM in water. Stored at 4° C. • Thallium sulfate (Tl2SO4) Concentrate (Component G)—50 mM in water. […]

hROMK1 (Kir1.1) = biological target: T2, hROMK1 (Kir1.1) (Homo sapiens, UniProt P48048); assay: ^86Rb^+ Efflux Assay; assay type: cell-based; conditions: CHO-DHFR- cells stably expressing hROMK1; potency ranges
T2 construct: expressed in transfected cells
T2 sequence (P48048 1-391): T1 sequence (P48048 1-391)

`Cc1c(CCN2CCC(NCc3ccc4c(c3)COC4=O)CC2)ccc2c1COC2=O` [Example 88, 4-Methyl-5-[2-(4-{[(1-oxo-1,3-dihydro-2-benzofuran-5-yl)methyl]amino}piperidin-1-yl)ethyl]-2-benzofuran-1(3H)-one] was tested, and the IC50 (hROMK (hKir1.1)) was ≤ 0.1 µM and the IC50 (hROMK1 (Kir1.1)) was ≤ 0.2 µM.
In the case of `O=C1OCc2cc(SC3CCN(CC(O)c4ccc5c(c4)COC5=O)CC3)ccc21` (stereo not drawn) [Example 85, 5-({1-[2-hydroxy-2-(1-oxo-1,3-dihydro-2-benzofuran-5-yl)ethyl]piperidin-4-yl}sulfanyl)-2-benzofuran-1(3H)-one], the IC50 (hROMK (hKir1.1)) is reported as ≤ 0.2 µM and the IC50 (hROMK1 (Kir1.1)) is reported as ≤ 0.5 µM.
`Cc1c(CCN2CCC(NCc3ccc4nonc4c3)CC2)ccc2c1COC2=O` [Example 89, 5-(2-{4-[(2,1,3-Benzoxadiazol-5-ylmethyl)amino]piperidin-1-yl}ethyl)-4-methyl-2-benzofuran-1(3H)-one] was tested, and the IC50 (hROMK (hKir1.1)) was ≤ 0.2 µM and the IC50 (hROMK1 (Kir1.1)) was ≤ 0.5 µM.
